Activity calls are given as the source filed them. No cut-off for these calls is given here.
Assays:
[1] = system: Bacteria; assay: Binding affinity to wild type U15-N labelled MurA (unknown origin) expressed in Escherichia coli at 500 uM using UNAG as substrate incubated for 90 to 150 mins by 15N-1H-HSQC NMR analysis; settings: time 90-150 min
[2] = target: UDP-N-acetylglucosamine 1-carboxyvinyltransferase (Escherichia coli K-12, UniProt P0A749); assay: Inhibition of Escherichia coli K12 His-tagged MurA expressed in Escherichia coli BL21 cells using UNAG as substrate pre incubated for 15 mins followed by substrate addition and measured after 15 mins by microplate reader analysis
[3] = system: Staphylococcus aureus; assay: Antibacterial activity against Staphylococcus aureus Newman D2C NCTC 10833 assessed as reduction in microbial growth incubated for 16 hrs by serial dilution method; type: functional
[4] = system: Escherichia coli; assay: Antibacterial activity against Escherichia coli harboring tolC deletion mutant assessed as reduction in microbial growth incubated for 16 hrs by serial dilution method; type: functional
[5] = system: UDP-N-acetylglucosamine 1-carboxyvinyltransferase (Escherichia coli K-12), P0A749 [C115D]; assay: Inhibition of Escherichia coli MurA C115D mutant using UNAG as substrate pre incubated for 15 mins followed by substrate addition and measured after 15 mins by microplate reader analysis; settings: time 30.0 min
[6] = system: Staphylococcus aureus; assay: Antibacterial activity against methicillin resistant Staphylococcus aureus USA300 assessed as reduction in microbial growth by CLSI based broth microdilution method; type: functional
[7] = system: Clostridioides difficile; assay: Antibacterial activity against Clostridioides difficile ATCC BAA1870 assessed as reduction in microbial growth incubated for 48 hrs by broth microdilution method; type: functional
[8] = Drug uptake in Escherichia coli harboring tolC deletion mutant assessed per 1.6x10^9 cells at 10 uM incubated for 30 mins by LC analysis; type: ADME; settings: 0.5 h
[9] = target: UDP-N-acetylglucosamine 1-carboxyvinyltransferase (Escherichia coli K-12) (UniProt P0A749); assay: Inhibition of Escherichia coli K12 His-tagged MurA expressed in Escherichia coli BL21 cells at 50 uM using UNAG as substrate pre incubated for 15 mins followed by substrate addition and measured after 15 mins by microplate reader analysis relative to control; settings: time 30.0 min
[10] = system: Enterococcus faecalis; assay: Antibacterial activity against Enterococcus faecalis ATCC 51299 assessed as reduction in microbial growth by CLSI based broth microdilution method; type: functional
[11] = Drug uptake in Escherichia coli harboring tolC deletion mutant at 10 uM incubated for 30 mins by LC analysis; type: ADME; settings: 0.5 h
[12] = system: Staphylococcus aureus; assay: Antibacterial activity against vancomycin resistant Staphylococcus aureus 10 assessed as reduction in microbial growth by CLSI based broth microdilution method; type: functional
[13] = system: Staphylococcus aureus; assay: Antibacterial activity against methicillin resistant Staphylococcus aureus NRS119 assessed as reduction in microbial growth by CLSI based broth microdilution method; type: functional
[14] = system: Staphylococcus aureus; assay: Antibacterial activity against methicillin sensitive Staphylococcus aureus NRS107 assessed as reduction in microbial growth by CLSI based broth microdilution method; type: functional
[15] = system: Streptococcus pneumoniae; assay: Antibacterial activity against Streptococcus pneumoniae ATCC 700677 assessed as reduction in microbial growth by CLSI based broth microdilution method; type: functional
[16] = target: UDP-N-acetylglucosamine 1-carboxyvinyltransferase (Escherichia coli K-12, UniProt P0A749, C115D); assay: Inhibition of Escherichia coli MurA C115D mutant at 50 uM using UNAG as substrate pre incubated for 15 mins followed by substrate addition and measured after 15 mins by microplate reader analysis relative to control
UDP-N-acetylglucosamine 1-carboxyvinyltransferase (Escherichia coli K-12, UniProt P0A749, C115D), sequence (P0A749 whole entry C115D): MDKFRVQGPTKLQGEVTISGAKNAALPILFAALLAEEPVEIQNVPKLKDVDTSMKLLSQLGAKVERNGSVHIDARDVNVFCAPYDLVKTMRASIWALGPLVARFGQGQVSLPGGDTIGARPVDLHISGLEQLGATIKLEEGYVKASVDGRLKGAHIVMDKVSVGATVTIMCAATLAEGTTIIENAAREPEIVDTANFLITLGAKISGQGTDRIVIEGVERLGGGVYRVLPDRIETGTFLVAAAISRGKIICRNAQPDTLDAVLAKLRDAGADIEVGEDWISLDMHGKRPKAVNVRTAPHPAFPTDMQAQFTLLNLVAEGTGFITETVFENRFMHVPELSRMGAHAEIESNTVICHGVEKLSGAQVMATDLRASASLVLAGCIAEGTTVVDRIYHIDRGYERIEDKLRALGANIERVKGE

UDP-N-acetylglucosamine 1-carboxyvinyltransferase (Escherichia coli K-12, UniProt P0A749), sequence (P0A749 whole entry): as the sequence (P0A749 whole entry C115D) above, with D115C counted along it
UDP-N-acetylglucosamine 1-carboxyvinyltransferase (Escherichia coli K-12), sequence (P0A749 whole entry): as the sequence (P0A749 whole entry C115D) above, with D115C counted along it
UDP-N-acetylglucosamine 1-carboxyvinyltransferase (Escherichia coli K-12), P0A749 [C115D], sequence (P0A749 whole entry C115D): as the sequence (P0A749 whole entry C115D) above

| Structure (SMILES) | Activity [1] | IC50 [2] | MIC [3] | MIC [4] | inhibition [5] | MIC [6] | MIC [7] | Drug uptake [8] | inhibition [9] | MIC [10] | Drug uptake [11] | MIC [12] | MIC [13] | MIC [14] | MIC [15] | IC50 [16] |
| --- | --- | --- | --- | --- | --- | --- | --- | --- | --- | --- | --- | --- | --- | --- | --- | --- |
| C[C@@H]1O[C@@H]1P(=O)(O)O [FOSFOMYCIN] | Active | 6.7 µM | 17 µM | 89 µM | inactive |  |  |  |  |  |  |  |  |  |  |  |
| N#Cc1cnc(NC(=O)C2CN(c3cccc(Cl)c3)N(c3cccc(Cl)c3)C2=O)s1 (stereo unspecified) |  | 10.9 µM | 10 µM | 10 µM |  | 32 µg/mL | 32 µg/mL | 84 µM | 70.8% | > 64 µg/mL | 2560 nM | 8 µg/mL | 16 µg/mL | 8 µg/mL | 32 µg/mL |  |
| O=C(Nc1ccc(-c2cn[nH]c2)cc1)C1CN(c2cccc(Cl)c2)N(c2cccc(Cl)c2)C1=O (stereo unspecified) |  | 12.2 µM | > 40 µM | > 40 µM | 77.2% |  |  | 11 µM | 76.5% |  | 348 nM |  |  |  |  | 12.4 µM |

Source: ChEMBL document CHEMBL5537113, “Discovery of 1,2-diaryl-3-oxopyrazolidin-4-carboxamides as a new class of MurA enzyme inhibitors and characterization of their antibacterial activity” (Eur J Med Chem, 2023)
